From US9113629B2, “4-amino-6-(4-substituted-phenyl)-picolinates and 6-amino-2-(4-substituted-phenyl)-pyrimidine-4-carboxylates and their use as herbicides” (DOW AGROSCIENCES LLC, priority 2013, dated 2015) come the findings set out here.

Assay in all cases: Post-emergent Test III, herbicidal activity in wheat and barley
What all share (assay type): in vivo

Assay [1] deals with PHAMI: lesser canary grass (Phalaris minor). The conditions noted are these: for pest or weed control at 35 g/ha / pest or weed control at 70 g/ha / pest or weed control at 140 g/ha: Phalaris minor, post-emergence, 504 h, read-out: Visual Growth Reduction (%) 21 Days After Application PHAMI; for pest or weed control at 35 g/ha: 35 g ai/ha; for pest or weed control at 70 g/ha: 70 g ai/ha; for pest or weed control at 140 g/ha: 140 g ai/ha; for GR50 PHAMI / GR80 PHAMI: probit analysis, 21 days after application; for GR50 PHAMI: dose for growth reduction of 50 percent; for GR80 PHAMI: dose for growth reduction of 80 percent. Summed up: (§1)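 GR20, GR50, GR80 and GR90 come from probit analysis of visual injury scores (0 = none, 100 = complete kill) taken 21 d after treatment. Foliar application was by track sprayer delivering 187 L/ha at five rates, from high down to 1/16×, onto greenhouse plants at the 2–3 leaf stage, with solvent-blank controls.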

Assay [2] relates to STEME: common chickweed (Stellaria media). The settings on record: for pest or weed control at 35 g/ha / pest or weed control at 70 g/ha / pest or weed control at 140 g/ha: Stellaria media, post-emergence, 504 h, read-out: Visual Growth Reduction (%) 21 Days After Application STEME; for pest or weed control at 35 g/ha: 35 g ai/ha; for pest or weed control at 70 g/ha: 70 g ai/ha; for pest or weed control at 140 g/ha: 140 g ai/ha; for GR50 STEME / GR80 STEME: probit analysis, 21 days after application; for GR50 STEME: dose for growth reduction of 50 percent; for GR80 STEME: dose for growth reduction of 80 percent. Summed up: as §1

Assay [3] has as its system VIOSS: wild pansy (Viola tricolor), field violet (Viola arvensis). The conditions noted are these: 21 days after application; for pest or weed control at 35 g/ha / pest or weed control at 70 g/ha: Viola tricolor, post-emergence, 504 h, read-out: Visual Gorowth Reduction (%) 21 days After Application VIOSS; for pest or weed control at 35 g/ha: 35 g ai/ha; for pest or weed control at 70 g/ha: 70 g ai/ha; for GR50 VIOSS / GR80 VIOSS: probit analysis; for GR50 VIOSS: dose for 50 percent growth reduction; for GR80 VIOSS: dose for 80 percent growth reduction. The essentials:
as §1

The test system of assay [4] is SASKR: Russian thistle (Salsola iberica). The conditions noted are these: 21 days after application; for pest or weed control at 35 g/ha / pest or weed control at 70 g/ha: Salsola tragus, post-emergence, 504 h, read-out: Visual Gorowth Reduction (%) 21 days After Application SASKR; for pest or weed control at 35 g/ha: 35 g ai/ha; for pest or weed control at 70 g/ha: 70 g ai/ha; for GR50 SASKR / GR80 SASKR: probit analysis; for GR50 SASKR: dose for 50 percent growth reduction; for GR80 SASKR: dose for 80 percent growth reduction. Summed up:
as §1

Consider `Nc1c(F)c(-c2ccc(Br)cc2)nc(C(=O)O)c1Cl` [Compound 20], for which, in assay [1], the pest or weed control at 35 g/ha was in the range of 85 to 94%, the pest or weed control at 70 g/ha was 85 to 94%, the pest or weed control at 140 g/ha lay within 85 to 94% and the “GR50 PHAMI” value was 5 g ai/ha. Moreover, the “GR80 PHAMI” value in assay [1] is given as 25 g ai/ha. Moreover, in assay [2], the pest or weed control at 35 g/ha was 75 to 84%, the pest or weed control at 70 g/ha lay in the range of 95 to 100%, the pest or weed control at 140 g/ha is 95 to 100% and the “GR50 STEME” value came out at 8 g ai/ha. Further, the “GR80 STEME” value in assay [2] worked out at 25 g ai/ha.
Turning to `N#Cc1ccc(-c2nc(C(=O)O)c(Cl)c(N)c2F)cc1` [Compound 39], in assay [1], the pest or weed control at 35 g/ha fell in the range of 0 to 29%, the pest or weed control at 70 g/ha fell in the range of 30 to 44%, the pest or weed control at 140 g/ha lay within 45 to 59% and the “GR50 PHAMI” value amounted to 118 g ai/ha. The “GR80 PHAMI” value in assay [1] was >140 g ai/ha. Also, in assay [2], the pest or weed control at 35 g/ha is 0 to 29%, the pest or weed control at 70 g/ha is 30 to 44%, the pest or weed control at 140 g/ha lay in the range of 45 to 59% and the “GR50 STEME” value came out at 111 g ai/ha. In assay [2], the “GR80 STEME” value is >140 g ai/ha.
Take `Nc1c(F)c(-c2ccc(I)cc2)nc(C(=O)O)c1Cl` [Compound 45, 4-amino-3-chloro-5-fluoro-6-(4-iodophenyl)picolinic acid]: in assay [1], the pest or weed control at 35 g/ha was in the range of 75 to 84%, the pest or weed control at 70 g/ha lay within 85 to 94%, the pest or weed control at 140 g/ha lay within 95 to 100% and the “GR50 PHAMI” value was 15 g ai/ha. Moreover, the “GR80 PHAMI” value in assay [1] is 32 g ai/ha. In addition, in assay [2], the pest or weed control at 35 g/ha lay within 30 to 44%, the pest or weed control at 70 g/ha is 30 to 44%, the pest or weed control at 140 g/ha was in the range of 30 to 44% and the “GR50 STEME” value worked out at 75 g ai/ha. Besides, the “GR80 STEME” value in assay [2] is reported as >140 g ai/ha.
With `Nc1c(F)c(-c2cc(F)c(I)cc2F)nc(C(=O)O)c1Cl` [Compound 69], in assay [3], the pest or weed control at 35 g/ha lay within 85 to 94%, the pest or weed control at 70 g/ha was 95 to 100%, the “GR50 VIOSS” value is listed as 3 g ai/ha and the “GR80 VIOSS” value stood at 8 g ai/ha. In assay [4], the pest or weed control at 35 g/ha fell in the range of 85 to 94%, the pest or weed control at 70 g/ha fell in the range of 85 to 94%, the “GR50 SASKR” value was 7 g ai/ha and the “GR80 SASKR” value was 29 g ai/ha.
`COC(=O)c1nc(-c2ccc(OC(F)F)cc2)c(F)c(N)c1Cl` [Compound 85]: in assay [1], the pest or weed control at 35 g/ha was in the range of 0 to 29%, the pest or weed control at 70 g/ha fell in the range of 0 to 29%, the pest or weed control at 140 g/ha is 0 to 29% and the “GR50 PHAMI” value was >140 g ai/ha. Moreover, in assay [1], the “GR80 PHAMI” value is on record as >140 g ai/ha. In assay [2], the pest or weed control at 35 g/ha is 0 to 29%, the pest or weed control at 70 g/ha lay within 0 to 29%, the pest or weed control at 140 g/ha was in the range of 0 to 29% and the “GR50 STEME” value is 57 g ai/ha. For the same molecule, the “GR80 STEME” value in assay [2] turned out to be 123 g ai/ha.
On to `C=Cc1c(C(=O)O)nc(-c2ccc(C(F)(F)F)c(F)c2)c(F)c1N` [Compound 86], for which, in assay [3], the pest or weed control at 35 g/ha fell in the range of 60 to 74%, the pest or weed control at 70 g/ha lay within 60 to 74%, the “GR50 VIOSS” value was 21 g ai/ha and the “GR80 VIOSS” value stood at 77 g ai/ha. Besides, in assay [4], the pest or weed control at 35 g/ha is 60 to 74%, the pest or weed control at 70 g/ha was in the range of 75 to 84%, the “GR50 SASKR” value worked out at 18 g ai/ha and the “GR80 SASKR” value was 66 g ai/ha.
Turning to `COC(=O)c1nc(-c2ccc(Br)c(F)c2F)cc(N)c1Cl` [Compound 114, methyl 4-amino-6-(4-bromo-2,3-difluorophenyl)-3-chloropicolinate], in assay [1], the pest or weed control at 35 g/ha lay within 0 to 29%, the pest or weed control at 70 g/ha lay within 0 to 29%, the pest or weed control at 140 g/ha is 0 to 29% and the “GR50 PHAMI” value is recorded as >140 g ai/ha. For the same molecule, in assay [1], the “GR80 PHAMI” value was >140 g ai/ha. For the same molecule, in assay [2], the pest or weed control at 35 g/ha lay in the range of 0 to 29%, the pest or weed control at 70 g/ha lay in the range of 0 to 29%, the pest or weed control at 140 g/ha fell in the range of 0 to 29% and the “GR50 STEME” value is >140 g ai/ha. In addition, the “GR80 STEME” value in assay [2] is >140 g ai/ha.
